Reference: ChEMBL document CHEMBL1136547, “2,3-Diarylbenzopyran derivatives as a novel class of selective cyclooxygenase-2 inhibitors” (Bioorg Med Chem Lett, 2003)

Key:
[1] = molecular target: T1, Prostaglandin G/H synthase 1 (Mus musculus) (UniProt P22437); assay: In vitro percentage inhibition against prostaglandin G/H synthase 1 using freshly harvested mouse peritoneal macrophages at 10 ug/mL concentration
T1 sequence (whole entry): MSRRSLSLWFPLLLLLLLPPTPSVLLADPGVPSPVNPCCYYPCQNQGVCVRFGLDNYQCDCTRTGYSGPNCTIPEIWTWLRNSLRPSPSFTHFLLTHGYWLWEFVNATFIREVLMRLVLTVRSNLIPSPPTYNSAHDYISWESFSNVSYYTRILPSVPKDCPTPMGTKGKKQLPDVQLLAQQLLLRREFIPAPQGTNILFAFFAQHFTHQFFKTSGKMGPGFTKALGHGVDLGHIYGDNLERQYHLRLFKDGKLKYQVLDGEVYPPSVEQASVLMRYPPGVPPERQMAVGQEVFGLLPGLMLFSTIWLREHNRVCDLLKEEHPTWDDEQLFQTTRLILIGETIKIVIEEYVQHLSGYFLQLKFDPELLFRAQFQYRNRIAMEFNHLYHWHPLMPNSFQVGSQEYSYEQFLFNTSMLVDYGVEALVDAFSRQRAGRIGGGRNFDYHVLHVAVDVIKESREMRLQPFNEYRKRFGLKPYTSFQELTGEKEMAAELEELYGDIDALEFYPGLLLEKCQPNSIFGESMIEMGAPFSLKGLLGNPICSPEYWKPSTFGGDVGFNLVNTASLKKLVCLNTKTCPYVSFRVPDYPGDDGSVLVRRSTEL

[2] = molecular target: T2, Prostaglandin G/H synthase 2 (Mus musculus, UniProt Q05769); assay: In vitro inhibitory concentration against prostaglandin G/H synthase 2 using freshly harvested mouse peritoneal macrophages
T2 sequence (Q05769 whole entry): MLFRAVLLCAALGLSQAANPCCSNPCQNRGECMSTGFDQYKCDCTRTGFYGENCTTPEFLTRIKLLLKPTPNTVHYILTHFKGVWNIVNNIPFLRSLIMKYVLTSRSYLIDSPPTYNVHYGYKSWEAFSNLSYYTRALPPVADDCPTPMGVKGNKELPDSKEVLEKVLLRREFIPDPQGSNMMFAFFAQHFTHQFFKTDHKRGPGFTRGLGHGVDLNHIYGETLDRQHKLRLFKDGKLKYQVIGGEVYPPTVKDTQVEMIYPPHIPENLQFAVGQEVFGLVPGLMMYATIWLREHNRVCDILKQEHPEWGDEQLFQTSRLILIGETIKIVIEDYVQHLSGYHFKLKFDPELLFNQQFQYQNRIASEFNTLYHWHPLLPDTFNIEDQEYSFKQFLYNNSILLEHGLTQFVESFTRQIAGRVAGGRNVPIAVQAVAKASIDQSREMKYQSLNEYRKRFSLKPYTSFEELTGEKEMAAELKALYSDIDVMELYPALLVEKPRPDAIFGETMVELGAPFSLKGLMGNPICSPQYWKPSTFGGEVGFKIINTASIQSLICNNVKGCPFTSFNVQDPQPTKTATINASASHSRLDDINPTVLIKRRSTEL

[3] = molecular target: T1, Prostaglandin G/H synthase 1 (Mus musculus); assay: In vitro percentage inhibition against using freshly harvested mouse peritoneal macrophages Prostaglandin G/H synthase 1 at 10 ug/mL concentration
Rattus norvegicus [4] = assay: Anti-inflammatory activity in Dawley rats by carrageenan-induced rat paw edema at a dose of 30 mg/kg by oral administration; assay type: functional
Rattus norvegicus [5] = assay: Anti-inflammatory activity in Dawley rats by carrageenan-induced rat paw edema at a dose of 10 mg/kg by oral administration; assay type: functional
[6] = Half-life period in rat at 10 mg/kg; assay type: ADME, organism-based; set-up: dose 10 mg/kg; conditions: in vivo
[7] = Cmax in rat at 10 mg/kg; assay type: ADME, organism-based; set-up: dose 10 mg/kg; conditions: in vivo
[8] = Tmax in rat at 10 mg/kg; assay type: ADME, organism-based; set-up: dose 10 mg/kg; conditions: in vivo
Rattus norvegicus [9] = assay: Anti-inflammatory activity in Dawley rats by carrageenan-induced rat paw edema at a dose of 3 mg/kg by oral administration; assay type: functional
[10] = molecular target: T3, Prostaglandin G/H synthase 2 (Mus musculus) (UniProt Q05769); assay: In vitro percentage inhibition against Prostaglandin G/H synthase 2 using freshly harvested mouse peritoneal macrophages at 10 ug/mL concentration
T3 sequence (whole entry): T2 sequence (Q05769 whole entry)

[11] = molecular target: T3, Prostaglandin G/H synthase 2 (Mus musculus); assay: In vitro percentage inhibition against Prostaglandin G/H synthase 2 using freshly harvested mouse peritoneal macrophages at 3 ug/mL concentration
Rattus norvegicus [12] = assay: Anti-inflammatory activity in Dawley rats by carrageenan-induced rat paw edema at a dose of 30 mg/kg; assay type: functional
Rattus norvegicus [13] = assay: Anti-inflammatory activity in Dawley rats by carrageenan-induced rat paw edema at a dose of 3 mg/kg; assay type: functional

`CS(=O)(=O)c1ccc(-c2oc3ccccc3c(=O)c2-c2cccc(F)c2)cc1` gave an inhibition [1] of under 5% and an IC50 [2] of 532 nM.
Work on `CS(=O)(=O)c1ccc(-c2oc3ccccc3c(=O)c2-c2ccc(Cl)c(Cl)c2)cc1` yielded an inhibition [1] of under 5% and an IC50 [2] of 269 nM.
With `CS(=O)(=O)c1ccc(-c2oc3ccccc3c(=O)c2-c2ccc(Cl)cc2Cl)cc1` the inhibition [1] was under 5% and the IC50 [2] was 359 nM.
Compound `NS(=O)(=O)c1ccc(-c2oc3ccccc3c(=O)c2-c2ccc(F)cc2)cc1` has an inhibition [1] of 67% and an IC50 [2] of 126 nM.
For `NS(=O)(=O)c1ccc(-c2oc3ccccc3c(=O)c2-c2ccccc2)cc1`, the inhibition [1] was 61% and the IC50 [2] was 106 nM.
`CS(=O)(=O)c1ccc(-c2oc3ccccc3c(=O)c2-c2ccccc2)cc1` gave an inhibition [1] of under 5% and an IC50 [2] of 930 nM.
`NS(=O)(=O)c1ccc(-c2oc3ccccc3c(=O)c2-c2ccc3c(c2)OCO3)cc1` showed an inhibition [3] of 75% and an IC50 [2] of 925 nM.
Compound `Cc1ccccc1-c1c(-c2ccc(S(C)(=O)=O)cc2)oc2ccccc2c1=O` has an inhibition [1] of under 5% and an IC50 [2] of 948 nM.
For `COc1ccc(-c2c(-c3ccc(S(C)(=O)=O)cc3)oc3ccccc3c2=S)cc1`, the inhibition [1] was under 5% and the IC50 [2] was 142 nM.
For `CSc1ccc(-c2c(-c3ccc(S(N)(=O)=O)cc3)oc3ccccc3c2=O)cc1`, the inhibition [1] was 90% and the IC50 [2] was 283 nM.
Compound `CS(=O)(=O)c1ccc(-c2oc3ccc(F)cc3c(=O)c2-c2cccnc2)cc1` has an inhibition in vivo at 30 mg/kg (Rattus norvegicus [4]) of 41%, an inhibition in vivo at 10 mg/kg (Rattus norvegicus [5]) of 26% and a half-life [6] of 7.4 h. The inhibition [1] was 12%, the IC50 [2] was 1260 nM and the Cmax [7] was 6900 ng/mL. For the same compound, the Tmax [8] was 5 h and the inhibition in vivo at 3 mg/kg (Rattus norvegicus [9]) was 20%.
Work on `CS(=O)(=O)c1ccc(-c2oc3ccccc3c(=O)c2-c2cc3ccccc3s2)cc1` yielded an inhibition [1] of under 5% and an IC50 [2] of 324 nM.
`CS(=O)(=O)c1ccc(-c2oc3ccccc3c(=O)c2-c2ccccn2)cc1` gave an inhibition [1] of 17% and an inhibition [10] of 44%.
`CS(=O)(=O)c1ccc(-c2oc3ccccc3c(=O)c2-c2ccccc2F)cc1` showed an inhibition [1] of under 5% and an IC50 [2] of 76.1 nM.
With `CS(=O)(=O)c1ccc(-c2oc3ccccc3c(=S)c2-c2ccc(Cl)c(Cl)c2)cc1` the inhibition [1] was under 5% and the IC50 [2] was 520 nM.
`COc1ccc(-c2c(-c3ccc(S(C)(=O)=O)cc3)oc3ccccc3c2=O)cc1` gave an inhibition [1] of under 5% and an IC50 [2] of 517 nM.
Work on `CS(=O)(=O)c1ccc(-c2oc3ccccc3c(=O)c2-c2cc(Cl)cc(Cl)c2)cc1` yielded an inhibition [1] of under 5% and an inhibition [11] of 7%.
Work on `COc1ccc(-c2c(-c3ccc(S(N)(=O)=O)cc3)oc3ccccc3c2=O)cc1` yielded an inhibition [1] of 84% and an IC50 [2] of 393 nM.
For `CS(=O)(=O)c1ccc(-c2oc3ccccc3c(=S)c2-c2ccccc2)cc1`, the inhibition [1] was under 5% and the IC50 [2] was 102 nM.
In the case of `Cn1cc(-c2c(-c3ccc(S(C)(=O)=O)cc3)oc3ccccc3c2=O)cn1`, the inhibition [1] is reported as under 5% and the inhibition [10] is reported as 13%.
`CS(=O)(=O)c1ccc(-c2oc3ccccc3c(=O)c2-c2cccc3ccccc23)cc1` gave an inhibition [1] of under 5% and an IC50 [2] of 3800 nM.
Compound `CS(=O)(=O)c1ccc(-c2oc3ccccc3c(=O)c2-c2ccc(Cl)cc2)cc1` has an inhibition [1] of under 5%.
Compound `CS(=O)(=O)c1ccc(-c2oc3ccccc3c(=S)c2-c2ccccc2F)cc1` has an inhibition [1] of under 5% and an IC50 [2] of 195 nM.
Compound `CS(=O)(=O)c1ccc(-c2oc3ccccc3c(=O)c2-c2cccc(Cl)c2)cc1` has an inhibition [1] of under 5% and an IC50 [2] of 365 nM.
`CS(=O)(=O)c1ccc(-c2oc3ccccc3c(=O)c2-c2ccc(F)cc2)cc1` showed an inhibition [1] of under 5% and an IC50 [2] of 203 nM.
`COc1ccc(-c2c(-c3ccc(S(C)(=O)=O)cc3)oc3ccccc3c2=O)cn1` showed an inhibition [1] of 18% and an IC50 [2] of 2310 nM.
Work on `CS(=O)(=O)c1ccc(-c2oc3ccccc3c(=O)c2-c2ccncc2)cc1` yielded an inhibition [1] of under 5% and an inhibition [10] of 24%.
`CS(=O)(=O)c1ccc(-c2oc3ccccc3c(=O)c2-c2cccnc2)cc1` gave an inhibition [1] of 13%, an inhibition in vivo at 30 mg/kg (Rattus norvegicus [12]) of 41% and an inhibition in vivo at 3 mg/kg (Rattus norvegicus [13]) of 18%.
In the case of `CS(=O)(=O)c1ccc(-c2oc3ccccc3c(=S)c2-c2ccc(F)cc2)cc1`, the inhibition [1] is reported as under 5% and the IC50 [2] is reported as 73.1 nM.
`NS(=O)(=O)c1ccc(-c2oc3ccccc3c(=O)c2-c2ccccc2F)cc1` gave an inhibition [1] of 60% and an IC50 [2] of 177 nM.
